# Test results from patent publication US9040567B2, “BAX agonist, compositions, and methods related thereto” (Emory University, priority 2011, dated 2015).
# Like-named read-outs stand apart in the source and are kept apart here.
# Tests used:
# [1] = system: A549 human lung cancer cells; experiment: sulforhodamine B (SRB) assay, surviving cell fraction; format: cell-based
# A549 cells [2] = system: A549 cells
# A549 cells [3] = experiment: apoptosis by ApoAlert Annexin-V kit in A549 cells; conditions: 1 μM, 48 h
# Experimental: (§3) (B) H1299, A549 or SAEC cells were treated with various types of small molecules (1 μM) for 48 h. Cell viability was assessed using ApoAlert Annexin-V kit. DMSO or cisplatin (40 μM) was used as a negative or positive control, respectively.
# H1299 cells = experiment: apoptosis by ApoAlert Annexin-V kit in H1299 cells; conditions: 1 μM, 48 h
# Experimental: as §3
# [4] = system: A549 lung cancer xenografts; experiment: TUNEL assay of apoptosis in xenograft tumor tissues; conditions: 50 mg/kg for 24 h
# Experimental: Apoptosis in tumor tissues was measured by TUNEL assay.
# Apoptosis in tumor tissues was analyzed by TUNEL assay.
# [5] = system: A549 lung cancer xenografts; experiment: A549 subcutaneous lung tumor xenografts in nude mice
# Experimental: At day 6, tumors were removed and photographed. […] Tumor volume was estimated by caliper measurements, data are mean±s.e.m. […] Apoptosis in tumor tissues was measured by TUNEL assay.
# [6] = system: primary normal small airway epithelial cells (SAEC); experiment: apoptosis by ApoAlert Annexin-V kit in normal small airway epithelial cells; conditions: 1 μM, 48 h
# Experimental: as §3
# BAX = target: T1, BAX (Homo sapiens, UniProt Q07812); experiment: BAX phosphorylation in 32P-labeled A549 cells (autoradiography); format: cell-based; conditions: nicotine 1 μM, 60 min
# T1 construct: A549 cells expressing endogenous BAX were metabolically labeled; endogenous in cells; host or cells: A549 cells
# T1 sequence (Q07812 whole entry): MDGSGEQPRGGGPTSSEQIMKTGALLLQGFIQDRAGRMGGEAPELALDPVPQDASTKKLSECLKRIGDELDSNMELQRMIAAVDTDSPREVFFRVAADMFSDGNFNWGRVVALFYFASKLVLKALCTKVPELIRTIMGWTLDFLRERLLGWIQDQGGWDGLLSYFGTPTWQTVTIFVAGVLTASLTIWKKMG
# Experimental: (§1) (A) A549 cells expressing endogenous BAX were metabolically labeled with ^32P-orthophosphoric acid and treated with nicotine for 60 min. BAX was immunoprecipitated by using an agarose-conjugated BAX antibody. Phosphorylation of BAX was determined by autoradiography. […] (C) A549 cells were treated with cisplatin (40 μM) in the absence or presence of nicotine (1 μM) for various times as indicated. Cell viability was analyzed for Annexin-V and PI binding by flow cytometry. […] Cells were metabolically labeled with ^32P-orthophosphoric acid and treated with nicotine for 60 min. Phosphorylated GFP-tagged BAX was analyzed by autoradiography. […] After 48 h, cells were treated with cisplatin (Cis) in the absence or presence of nicotine for 24 h. Cell viability was analyzed as in (C).
# (§2) To test whether BAX phosphorylation occurs in human lung cancer cells, A549 cells were metabolically labeled and treated with nicotine (1 μM) for 60 min. […] To test whether nicotine induces BAX phosphorylation at ser184, WT, S184A or S184E cDNA in the pcDNA3 mammalian expression vector was transfected into H157 cells.
# BAX Ser184 = experiment: BAX phosphorylation in H157 cells transfected with WT, S184A or S184E BAX; format: cell-based, human; conditions: H157 cells expressing WT, 60 min
# Experimental: as §1, §2
# [7] = A549 cells, 48 h, SRB assay, read-out: IC50
structure (smiles),measurement,setting,value
"NCCOc1ccccc1C=C1c2ccccc2-c2ccc([N+](=O)[O-])cc21 [CYD-2-11, 2-[2-(2-Nitro-fluoren-9-ylidenemethyl)-phenoxy]-ethylamine]",IC50,[1]; [7],1.93 µM
"O=[N+]([O-])c1ccc2c(c1)C(=Cc1ccccc1OC1CCNCC1)c1ccccc1-2 [CYD-2-13, 4-[2-(2-Nitro-fluoren-9-ylidenemethyl)-phenoxy]-piperidine]",IC50,[1]; [7],5.91 µM
"CC(=O)N1CCN(CCOc2ccccc2C=C2c3ccccc3-c3ccc([N+](=O)[O-])cc32)CC1 [CYD-2-17, 1-(4-{2-[2-(2-Nitro-fluoren-9-ylidenemethyl)-phenoxy]-ethyl}-piperazin-1-yl)-ethanone]",IC50,[1]; [7],5.08 µM
"NCCOc1ncccc1C=C1c2ccccc2-c2ccc([N+](=O)[O-])cc21 [CYD-4-61, 2-[3-(2-Nitro-fluoren-9-ylidenemethyl)-pyridin-2-yloxy]-ethylamine]",IC50,"[1]; A549, 48 h",0.026 µM
O=[N+]([O-])c1ccc2c(c1)C(=Cc1ccccc1O)c1ccccc1-2 [SMBA1],apoptotic cell death in combination with cisplatin,A549 cells [2]; combination with cisplatin,enhances apoptotic cell death
same,apoptotic effect,A549 cells [3],potent apoptotic effect
same,apoptotic effect,H1299 cells,potent apoptotic effect
same,apoptosis in tumor tissues (TUNEL),[4],resulted in apoptosis in tumor tissues
same,tolerability of treatment doses,"[5]; 25, 50 or 75 mg/kg i.p. q.d. for two weeks",well tolerated
same,effect on established tumor xenografts (tumor volume),"[5]; 25, 50 or 75 mg/kg i.p. q.d. for two weeks, preliminary results",significant regression of established lung cancer xenografts
same,"toxicities on liver, kidney and heart",[5]; doses of 50-75 mg/kg,"well tolerated without significant toxicities on liver, kidney and heart"
same,apoptotic effect on normal cells compared to H1299 or A549 cells,[6],significantly less apoptotic effect
CN1CCCC1c1cccnc1 (stereo not drawn) [nicotine],BAX phosphorylation,BAX,potently stimulates serine phosphorylation of BAX
same,phosphorylation of WT and mutant BAX,BAX Ser184,induces phosphorylation of WT but not S184A or S184E mutant BAX
same,survival of A549 cells following cisplatin treatment,"A549 cells [2]; cisplatin 40 μM, nicotine 1 μM",significantly prolongs survival of A549 cells
